In patent US20230270104A1, “USE OF ERYTHRITOL COMPOSITIONS AS MAMMAL-SAFE INSECTICIDES” (Drexel University, priority 2020, published 2023):
Entries after “also recorded” stand apart in the source; their conditions may differ. Read-outs that look alike come from different tables or passages of the source.

Experiments:
fruit flies [1] = experiment: Comparison of erythritol with other human-safe sweet alcohols, fly longevity; format: in vivo, Drosophila melanogaster; settings: 17 days; for longevity, erythritol treatment versus the other treatments: FIG. 6
Description: An experiment was conducted to compare the effectiveness of erythritol with other human-safe sweet alcohols: D-mannitol, maltitol, sucrose, and xylitol. The concentration of all sweet alcohols were 1M.
Flies were raised for 17 days on standard fly food that contained 1 M concentrations of each sweetener treatment. Death of flies was recorded daily as before; each treatment was replicated on three vials of 10 flies each for 30 subjects/treatment. Differences in longevity were analyzed using the Kaplan-Meier survival analysis log rank test, making all pairwise comparisons among treatments.

Drosophila melanogaster [2] = experiment: Longevity of adult flies raised on food containing sweeteners; format: in vivo; settings: repeat study, blue-dyed food with 0.0238 g/ml sweetener, FIG. 3
Description: All animals were cultured at 25° C., kept at 50-60% humidity, and were raised under a standard 12:12 light dark cycle. For each experimental treatment, n=30 flies were tested in groups of 10 per tube, and three tubes per treatment. Tubes were kept on their side to minimize subject becoming mired in the food. Foods were replaced twice a week. The total number of fruit flies used for these experiments was 780, with 300 used for two initial trials testing mortality among store-brand sweeteners, 210 used for repeating this with blue dye and pure erythritol, 120 for choice trials and 150 for concentration trials.
Standard Drosophila food for larval culturing consisted of water, cornmeal, yeast, molasses, and agar, as previously described (Chakraborty, et al., 2011, PLoS ONE 6: e20799). […] The addition of cornmeal and yeast assured the flies still received sufficient carbohydrates and protein in addition to any effects of the treatment additives.
Drosophila food was combined with an equal weight/volume (0.0238 g/ml) of one non-nutritive sweetener (TRUVIA, EQUAL, SPLENDA, SWEET'NLOW, or PUREVIA) or a control nutritive sweetener (controls: sucrose or corn syrup). Wild type (Canton S) larvae were initially raised on the standard food, and 0-12 hour old adult flies were transferred to foods containing one non-nutritive sweetener or a control treatment. […] The number of dead flies were scored daily.

Drosophila melanogaster [3] = experiment: Two-way food choice experiments, fly longevity; format: in vivo; settings: FIG. 5
Description: Foods containing 2 M erythritol, 1M erythritol and 1M sucrose were prepared for paired presentations in open choice tests. In each treatment one food type contained 0.05% brilliant blue FCF (Fisher 50-727-25). The blue dye allowed visual confirmation of feeding on the dyed food in the pair. The flies were presented with access to two food choices by using a modified cotton stopper with approximately a 1.5 cm diameter hole to connect each pair of food tubes.
The final choice treatment was between blue 2M erythritol food and non-blue 1M sucrose food (this treatment provides a comparison with the 1M erythritol/1M erythritol treatment as a test of dilution of toxicity by alternative food sources; blue guts would confirm erythritol was being consumed in the presence of sucrose). The number of flies with visible blue gut contents and mortality daily were recorded for 30 days.
(§1) Analyses were conducted with SPSS software v. 20 (IBM corporation 2011). Fly longevity data were analyzed using survival analysis with right-hand censoring of subjects that lived to the end of the study or were lost for reasons other than death. Test were run for differences in survival distributions [Pr(flies alive) versus insect age] using the log-rank (Mantel-Cox) test to make all pairwise comparisons among treatments within each experiment.

Drosophila melanogaster [4] = experiment: Erythritol concentration trials, fly longevity; format: in vivo
Description: as §1, with “Standard fly foods were prepared as previously described, and then were treated with 2M, 1M, 0.5M and 0.1M concentrations of erythritol, using 0.5M sucrose as control. 0 to 24 hour-old Drosophila were placed on these foods and mortality was recorded daily for 35 days as above. Analyses” for “Analyses”

fruit flies [5] = settings: 0.5 M erythritol food, previous work; cited from earlier work
R. flavipes workers = format: in vivo, Reticulitermes flavipes
Description: Termites used in the survival and choice experiments were collected from three field colonies in Scotland Run Park (39.66° N, 75.05° W) in Clayton, N.J. between April and May 2019. After collection, colonies were maintained in plastic containers with soil and wood from the collection site as a substrate in laboratory conditions (20.8±0.9° C., 49±7% RH). Termites used in the consumption experiment were collected from a single field colony at Cobb's Creek Park (39.94° N, 75.24° W) in Philadelphia, Pa. during September of 2018. Workers were removed from the log and housed within 24 h of collection in 9 cm diameter petri dishes containing damp paper towel as a food source. Dishes were placed in an incubator at 26° C. (relative humidity varied between 40 and 60% across trials, but was consistent among all treatments within each trial). Each petri dish contained 10 workers. Termites used in all experiments measured 3-4 mm in length.
For the survival experiment, unbleached, brown paper towels (12 cm×24 cm, cat no. 01801, Kimberly-Clark Corporation, Neenah, Wis.), were completely submerged for 15 s in solution of distilled water, erythritol (100% purity, NOW foods, Bloomingdale, Ill.) of the below-specified concentrations, and 0.05% Brilliant Blue R-250 dye (cat. no 27816, Sigma-Aldrich, St. Louis, Mo.). The erythritol concentrations used were: 0 M (control), 0.25 M, 0.5 M, 0.75 M, 1.0 M, and 1.25 M. The treated paper towels were removed from solution and allowed to dry horizontally on racks before being cut into squares with an area of 144 cm^2. Papers were thereafter stored dry at room temperature in sealed containers.
Prior to the beginning of the experiment, termites were allowed to acclimate for 3 d to the petri dishes, in order to control for any death due to injury incurred during movement to the petri dishes; this was called the pretrial period. At the beginning of the pretrial period, termites used in the survival experiment were transferred from sections of natural nest kept in laboratory rearing boxes to 9 cm diameter plastic petri dishes lined with brown, unbleached paper towel (12 cm×24 cm) not treated with erythritol. The paper towel was rehydrated with 1 ml of distilled water. Each dish contained 10 workers. After the third (final) day of the pretrial period, dishes were checked for dead termites, assumed to be dead due to injury, and dead termites were replaced with live individuals from a petri dish of extra termites kept in similar conditions.
Following the pretrial period, the experiment was set up: pretrial paper towels were removed and replaced with treated paper towels of the correct erythritol treatment concentration; these were rehydrated with 750 μL of distilled water. Six treatment groups (0 M, 0.25 M, 0.5 M, 0.75 M, 1.0 M, 1.25 M erythritol) were used per colony (n=3 colonies), with three dishes per treatment, each containing 10 termite workers (n=30 workers/treatment/colony, n=540 total workers). Termite mortality was recorded every 24 h for 8 d.
Analyses were performed using SPSS v. 24 (IBM corp. 2016) and. Sigmaplot v.12.5 (Systat Software 2013) software. Differences in survival distributions across concentrations for all colonies, within the colonies, and across colonies were tested using pairwise log-rank Mantel Cox tests in SPSS, with subjects living to the end of the trial or lost to reasons other than death (e.g., escaped or injured) included in the analysis as right-censored values. Mean percent mortality was calculated for each concentration across colonies at 72 and 96 h and a three parameter, best-fit sigmoid curve was fitted to the data in Sigmaplot to assess LC at these time points.

[6] = 1 M sweetener in standard fly food

With `OC[C@@H](O)[C@@H](O[C@H]1O[C@H](CO)[C@@H](O)[C@H](O)[C@H]1O)[C@H](O)[C@@H](O)CO` [maltitol] the “longevity compared to sucrose (sugar) control” value (shortened to “longevity compared to sucrose”) (fruit flies [1]; [6]) was “did not differ from sugar control; also recorded: did not differ from the control; also recorded: not effective at reducing fly longevity” and the “longevity, erythritol treatment versus the other treatments” value (fruit flies [1]; [6]) was “significantly greater longevity than erythritol-fed flies”.

With `OC[C@H]1O[C@@](CO)(O[C@H]2O[C@H](CO)[C@@H](O)[C@H](O)[C@H]2O)[C@@H](O)[C@@H]1O` [sucrose] the “longevity, erythritol treatment versus the other treatments” value (fruit flies [1]; [6]) was “significantly greater longevity than erythritol-fed flies”.

With `OC[C@@H](O)[C@H](O)[C@@H](O)CO` [xylitol] the “longevity compared to sucrose” value (fruit flies [1]; [6]) was “did not differ from sugar control; also recorded: did not differ from the control; also recorded: not effective at reducing fly longevity” and the “longevity, erythritol treatment versus the other treatments” value (fruit flies [1]; [6]) was “significantly greater longevity than erythritol-fed flies”.

For `OC[C@@H](O)[C@@H](O)[C@H](O)[C@H](O)CO` [D-mannitol], the “longevity compared to sucrose” value (fruit flies [1]; [6]) was “did not differ from sugar control; also recorded: slightly but significantly reduced longevity; also recorded: almost insignificant insecticidal effect” and the “longevity, erythritol treatment versus the other treatments” value (fruit flies [1]; [6]) was “significantly greater longevity than erythritol-fed flies”.

With `OC[C@@H](O)[C@@H](O)CO` [erythritol, (2R,3S)-butane-1,2,3,4-tetraol] the “longevity compared to PUREVIA, EQUAL, sucrose and corn syrup” value (Drosophila melanogaster [2]) was “significant decrease in longevity”, the “longevity relative to sucrose:sucrose choice” value (Drosophila melanogaster [3]; choice between 1M sucrose and 1M erythritol) was “significant decrease in longevity; also recorded: significantly decreased longevity” and the “longevity relative to sucrose:sucrose choice” value (Drosophila melanogaster [3]; choice between 1M sucrose and 2M erythritol) was “significant decrease in longevity; also recorded: significantly reduced”. For the same molecule, the “toxicity to fruit flies upon ingestion” value (fruit flies [1]; 1 M in standard fly food) was “toxic to fruit flies upon ingestion”, the mean longevity (fruit flies [1]; [6]) was 4.7 ± 0.15 days and the “longevity, erythritol treatment versus the other treatments” value (fruit flies [1]; [6]) was “significantly lower; also recorded: significantly shorter longevity”. For the same molecule, the “longevity compared to control food” value (Drosophila melanogaster [4]; 0.1M erythritol in food, observations terminated at 35 days) was “no significant difference in longevity”, the “longevity with increasing erythritol concentration” value (Drosophila melanogaster [4]; 0.1M, 0.5M, 1.0M and 2.0M in food, 35 days, FIG. 4) was “significant decrease in longevity; also recorded: dose-dependent reduction in longevity” and the “longevity compared to control food containing 0.5M sucrose” value (Drosophila melanogaster [4]; 0.5M erythritol in food) was “significant reductions in longevity”. The “longevity compared to control food containing 0.5M sucrose” value (Drosophila melanogaster [4]; 1M erythritol in food) was “significant reductions in longevity”, the “longevity compared to all other treatments” value (Drosophila melanogaster [4]; 2M erythritol in food) was “significant and severe effect on longevity” and the “time of exposure to reach 50% mortality” value (fruit flies [5]) was 20 days. For the same molecule, the “reduction in mean longevity” value (R. flavipes workers; 0.25 M to 0.5 M) was 1.74 days, the “reduction in mean longevity” value (R. flavipes workers; 0.5-0.75 M) was 0.23 days and the “reduction in mean longevity” value (R. flavipes workers; 0.75-1.0 M) was 0.26 days. For the same molecule, the “reduction in mean longevity” value (R. flavipes workers; 1.0-1.25 M) was 0.14 days, the “concentration at which significant effects on longevity start” value (R. flavipes workers; R. flavipes workers, 8 d) was 0.25 M and the “reduction in mean longevity” value (R. flavipes workers; concentration increased from 0 M to 0.25 M, FIG. 10) was 3.77 days. For the same molecule, the “time of exposure to reach 50% mortality” value (R. flavipes workers; termites, 0.5 M erythritol filter papers) was no more than 2 days.
